Data as given in patent EP0451791A2, “Long acting liposome compositions containing peptid drugs and method for their preparation” (HOECHST AKTIENGESELLSCHAFT, priority 1990, dated 1991).

System: weiblicher Ratten
Experiment: Cycle (oestrus) suppression in female rats after s.c. injection, weekly vaginal smear (Beispiel 2)
Type: in vivo
Conditions: HOE 013 solution 60 μg daily, liposomes single dose 3200 μg HOE 013
Description: 2 x 1 ml der Liposomen (entspr. einer Einmalgabe von 3200 µg HOE 013) aus Beispiel 1 werden subkutan weiblichen Ratten von ca. 200 g Körpergewicht injiziert. Als Kontrolle dient eine gleiche Testgruppe von Tieren, die nur Lösungsmittel (Kochsalzlösung) erhält (Placebo) und eine Gruppe von Tieren, die mit täglichen Gaben von LHRH-Antagonist-Lösung (60 µg) (in 5 %iger Mannitlösung) behandelt wird. Die Östrussuppression der Tiere wird durch wöchentlichen Östrusabstrich überprüft. Am Tag 35 wird die Konzentration von HOE 013 im Urin gemessen und die 24 h-Ausscheidung berechnet.
Die Ergebnisse (s. Tabelle 1) zeigen, daß die Tiere der Liposomengruppe im Gegensatz zu den beiden Kontrollgruppen nach 35 Tagen noch deutlich supprimiert sind. Die Exkretionsrate am Tag 35 (4,5 µg) belegt eine signifikante Ausscheidung des Antagonisten im Falle der Liposomenpräparation. Diese Exkretionsrate ist mit der Plasmakonzentration eng korreliert.

Measured: Ratten mit Zuyklussuppression/ Ratten pro Gruppe

Ac-D-Nal-p-Cl-D-Phe-D-Trp-Ser Tyr-D-Ser (α-L-Rha)-Leu-Arg-Pro-Azagly-NH₂ [HOE 013]
0/11: Tag 1 of vaginal cytology | Tag 7 of vaginal cytology | Tag 14 of vaginal cytology | Tag 21 of vaginal cytology | Tag 28 of vaginal cytology | Tag 35 of vaginal cytology
